Assay results taken from US20230382948A1, “DELIVERY OF ENDOTHELIAL CELL-LADEN MICROGEL ELICITS ANGIOGENESIS IN SELF-ASSEMBLING ULTRASHORT PEPTIDE HYDROGELS” (KING ABDULLAH UNIVERSITY OF SCIENCE AND TECHNOLOGY, priority 2020, published 2023).

Key:
HUVECs = test: 3D SUP hydrogel bead assay coculture (angiogenesis in vitro assay); assay type: cell-based, human; conditions: for Endothelial network formation in bulky hydrogel: after 20 days of coculture, HUVEC-laden microgels, HDFn-loaded bulky hydrogel
Experimental: This assay was done by iterating the 4 combinations between SUP bulk-hydrogels ((3) and SUP microgels (p) (i.e., β-IVFK (SEQ ID NO. 1)+μ-IVFK (SEQ ID NO. 1); β-IVFK (SEQ ID NO. 1)+μ-IVZK (SEQ ID NO. 2); βIVZK (SEQ ID NO. 2)+μ-IVFK (SEQ ID NO. 1); β-IVZK (SEQ ID NO. 2)+μ-IVZK (SEQ ID NO. 2)). The next procedure is the same for all combinations using as an example β-IVFK (SEQ ID NO. 1)+μ-IVFK (SEQ ID NO. 1). HUVECs were cultured on μ-IVFK (SEQ ID NO. 1) for 24 h as described previously. By the bead assay seeding day, IVFK (SEQ ID NO. 1) powder for β-hydrogel was dissolved at 8 mg/mL in sterile water 1 h before seeding. Meanwhile, HDFn cells were harvested and resuspended in 2 xPBS at 1.2×10^6 HDFn cells/mL, and simultaneously, HUVEC laden μ-IVFK (SEQ ID NO. 1) were spun down in a tube at 50 g for 5 min. The supernatant was discarded, and 200 μL of HUVEC-ladenμ-IVFK (SEQ ID NO. 1) was mixed with 200 μL of HDFn cells in 2×PBS. Immediately, 100 μL of IVFK (SEQ ID NO. 1) solution at 8 mg/mL was poured on the culture dish and mixed with 100 μL of HUVEC-laden μ-IVFK (SEQ ID NO. 1) with HDFn cells in 2×PBS. The 3D hydrogel bead assay coculture was incubated at 37° C. for 10 min to guarantee β-IVFK (SEQ ID NO. 1) gelation. The final concentration of β-IVFK (SEQ ID NO. 1) was 4 mg/mL. Afterward, 2 mL of EGM-2 (EBM supplemented with singleQuots) was added to each dish containing the 3D hydrogel bead assay coculture, and the medium was changed every other day until fixation for immunofluorescence on culture day 8 and day 21.
The medium was removed from the 3D SUP hydrogel bead assay coculture samples and incubated with PBS at 37° C. for 15 min. Samples were fixed with 4% formaldehyde (v/v) in PBS for 30 min at 22° C. and washed with PBS for 15 min at 22° C. under rocking. Later, samples were detached from the bottom of the plate using a bent spatula and transferred to individual wells in a 24-well plate where they were permeabilized with 0.5 mL per well of (v/v) Triton® X-100 in PBS for 1 h at 22° C. under rocking. After, samples were blocked overnight at 4° C. in a wet chamber under rocking with 0.5 mL per well of 10% (v/v) goat serum in PBS containing 0.01% (v/v) Triton® X-100. From the next step and on, samples were protected from light all of the time. Samples were incubated for 36 h at 4° C. in a wet chamber under rocking with anti-CD31 Alexa® Fluor 647 and anti-Vimentin Alexa® Fluor 488, both diluted 1/100 in blocking buffer. Samples were washed with PBS for […] at 22° C. with shaking, replacing the PBS every hour. Then, cell nuclei were stained with 0.1 μg/mL DAPI in PBS for 5 min at 22° C. and washed three times with PBS for 5 min Finally, samples were transferred to 27 mm glass bottom dishes and imaged with a CLSM Zeiss® 710 or 880. Imaging of the entire sample was done by whole mount Z-stack tile scanning, and zoom-in images were Z-stack imaging with orthogonal views. Maximum intensity projections of the whole mount and zoom-in are presented.

[1] = Transmission electron microscopy of nanofibers; assay type: physicochemical; conditions: TEM
Experimental: TEM imaging was performed using a FEI Tecnai G2 Spirit Twin instrument with a 120 kV emission gun. One drop of diluted peptide hydrogel in water was placed on a carbon-coated copper grid that had been treated with glow discharge plasma prior to being used. The drop was kept on the grid for 10 min before being blotted using filter paper. The grid was stained with 2% uranyl acetate for 30 s to get better contrast. The grid was then rinsed in water to remove uranyl excess and dried for at least 1 day before imaging. The average diameter of the nanofibers was measure using hnageJ and Origin software from 100 fibers.

Substance | Endothelial network formation in bulky hydrogel (HUVECs) | Endothelial sprouting (HUVECs; soft bulk hydrogel 4 mg/mL, after 8 days in culture) | Single-filament thickness [1] | Endothelial network, comparison of bulky hydrogels (HUVECs; IVFK versus IVZK bulky hydrogel, 20 days of coculture) | Lumen (branched hollow structures), comparison of bulky hydrogels (HUVECs; IVFK versus IVZK bulky hydrogels)
Ac-Ile-Val-Cha-Lys-NH2 (IVXK; HELM PEPTIDE1{[ac].I.V.[Cha].K.[am]}$$$$V2.0; SMILES CC[C@H](C)[C@H](NC(C)=O)C(=O)N[C@H](C(=O)N[C@@H](CC1CCCCC1)C(=O)N[C@@H](CCCCN)C(N)=O)C(C)C) [IVZK, self-assembling ultrashort tetrapeptide, Z = cyclohexylalanine, forms hydrogels and microgels] | developed an evident endothelial network | show initial signs of sprouting | around 3 nm |  | 
Ac-Ile-Val-Phe-Lys-NH2 (Ac-IVFK-NH2) [self-assembling ultrashort tetrapeptide, forms hydrogels and microgels] | developed an evident endothelial network |  | around 3 nm | more extended and complex | more visible and also larger
